From patent US6596308B2, “Controlled release pharmaceutical composition” (Kos Pharmaceuticals, Incorporated, priority 2001, dated 2003)

Test: dissolution release of hard shell capsule formulations, USP Basket Method (Apparatus 1)

- time in which lovastatin was completely released (in vitro release, FIG. 2) (Precirol ATO5 capsule systems containing the fast hydrating Methocel polymers, water with 1% sodium dodecyl sulfate, 37° C., 100 RPM): 4 h
- period over which sustained release of lovastatin was obtained (in vitro release, FIG. 2) (Precirol ATO5 capsule systems containing the non-hydrating Ethocel, water with 1% sodium dodecyl sulfate, 37° C., 100 RPM): 24 h
- rank order of release rate by cellulose polymer (FIG. 1) (lovastatin, Compritol 888 capsule system, fastest hydrating polymers gave faster release): Methocel K>Methocel E>Ethocel
SMILES: CC[C@H](C)C(=O)O[C@H]1C[C@@H](C)C=C2C=C[C@H](C)[C@H](CC[C@@H]3C[C@@H](O)CC(=O)O3)[C@H]21 [lovastatin]
- release of lovastatin by type of cellulosic polymer, compritol formulation (lovastatin, compritol, Methocel K100M vs Ethocel P20): released considerably faster from a formulation of Methocel K100M than Ethocel P20
- release of lovastatin by type of cellulosic polymer, precirol formulation (lovastatin/precirol, Methocel K100M vs Ethocel P20): faster when the formulation contains Methocel K100M than Ethocel P20
- release of lovastatin by type of high melting fatty acid ester (same cellulose (methocel) component, prolonged period of about 24 hours): fastest with Precirol AT05, slowest with Compritol 888
